In US7173063B1, “Topoisomerase poisons for the treatment of proliferative disorders” (Fred Hutchinson Cancer Research Center, priority 2000, dated 2007):

Columns and labels:
[1] = system: chicken pre-B cell line DT40; test: Thymidine incorporation toxicity assay in isogenic DT40 cells with or without KU70, RAD52, RAD54; assay type: cell-based; settings: for effect of loss of homologous recombination (RAD52 or RAD54) on toxicity: DT40 with or without RAD52 or RAD54
Procedure: (§1) Cell lines were grown at 37° C. in an atmosphere of 5% CO2. The chicken pre-B cell line DT40 and its derivatives (Bezzubova, et al., Cell 89: 185–93 (1997), Takata, et al., EMBO Journal 17: 5497–508 (1998), Yamaguchi-Iwai, et al., Molecular & Cellular Biology 18: 6430–5 (1998)) were grown in RPMI containing 10% fetal calf serum and 1% chicken serum. The remaining cell lines were grown in DMEM with 10% fetal calf serum.
(§2) Toxicity assays in mammalian cell lines were performed using tritiated thymidine incorporation as a measure of the number of viable cells. […] Drug toxicity was measured as follows:
(§3) Cells were plated at a density of 500 cells per well in opaque 96 well plates (Packard) in a volume of 135 μL per well of the appropriate media. The plates were incubated overnight to allow cell adherence. Seven two-fold dilutions of the test compounds were added in a volume of 15 μL per well in triplicate, and 15 μL of media containing an appropriate concentration of DMSO was added to control wells in triplicate. Plates were incubated at 37° C. for 96 hours. The media was then replaced with 100 μL per well of the appropriate media containing 2 μCi/mL of (methyl-^3H) thymidine (Amersham Pharmacia Biotech), then plates were incubated for a further 24 hours at 37° C. Cells were washed three times with PBS, then 100 μL per well of scintillant was added (Microscint 20, Packard), and sealed plates were counted in a microplate reader (Packard Topcount). For suspension chicken cells, (methyl-^3H) thymidine was added directly to the drug-containing media at a concentration of 20 μCi/mL (comprising one tenth of the media volume) and incubated overnight. The suspension cells were transferred to a UniFilter GF/C plate (Packard) and washed with PBS in a plate washer (Packard). After drying, 25 μL per well of scintillant (Microscint 20, Packard) was added, and sealed plates were counted. Toxicity is expressed as a percentage of the control counts. For experiments involving shorter exposures to compounds, cells were grown in the presence of compound for the appropriate time, then the media was replaced with fresh drug-free media, and incubation continued for the remainder of 96 hours, followed by the normal tritiated thymidine uptake and washing protocol.
In the case of Topo II poisons, the drug/enzyme complex directly produces a DSB, which could occur in all phases of the cell cycle and can apparently be repaired by either DSB repair pathway. Topo I poisons, however, create a single strand break that is converted to a DSB by passage of a replication fork during ongoing DNA synthesis (D'Arpa, et al., Cancer Research 50: 6919–24 (1990), Hsiang, et al., Cancer Research 49: 5077–82 (1989), Holm, et al., Cancer Research 49: 6365–8 (1989)). It has been proposed that DSB's created in this context can only be repaired by homologous recombination, additionally requiring proteins involved in sister chromatid cohesion (Castano, et al., Genes & Development 10: 2564–76 (1996), Castano, et al., Nucleic Acids Research 24: 2404–10 (1996), Walowsky, et al., Journal of Biological Chemistry 274: 7302–8 (1999)).

[2] = target: T1, purified Topo I (Homo sapiens, UniProt P11387); test: In vitro assay for DNA strand-break formation in the presence of purified Topo I; assay type: biochemical
T1 sequence (P11387 1-765): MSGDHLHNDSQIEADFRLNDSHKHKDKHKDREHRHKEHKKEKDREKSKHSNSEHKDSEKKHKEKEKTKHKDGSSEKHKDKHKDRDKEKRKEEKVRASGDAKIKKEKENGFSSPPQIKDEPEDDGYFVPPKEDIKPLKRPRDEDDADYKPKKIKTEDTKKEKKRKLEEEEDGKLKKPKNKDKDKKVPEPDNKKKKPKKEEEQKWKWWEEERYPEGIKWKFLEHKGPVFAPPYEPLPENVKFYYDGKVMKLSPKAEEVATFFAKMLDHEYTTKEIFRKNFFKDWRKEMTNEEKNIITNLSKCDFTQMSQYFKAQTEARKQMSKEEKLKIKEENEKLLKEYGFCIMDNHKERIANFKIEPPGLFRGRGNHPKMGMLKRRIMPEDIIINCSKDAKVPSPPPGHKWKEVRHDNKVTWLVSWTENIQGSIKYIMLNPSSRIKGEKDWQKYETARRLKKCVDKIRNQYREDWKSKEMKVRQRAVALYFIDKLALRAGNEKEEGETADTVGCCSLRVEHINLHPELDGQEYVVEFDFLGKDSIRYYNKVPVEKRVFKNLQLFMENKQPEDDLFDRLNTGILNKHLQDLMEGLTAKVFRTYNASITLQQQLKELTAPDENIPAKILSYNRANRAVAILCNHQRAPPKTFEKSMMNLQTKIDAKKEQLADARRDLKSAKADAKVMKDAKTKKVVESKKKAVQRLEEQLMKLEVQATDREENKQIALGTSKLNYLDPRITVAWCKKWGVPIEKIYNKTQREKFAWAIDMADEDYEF

[3] = system: Rat1a fibroblasts; test: Effect of exposure time on toxicity in Rat1a fibroblasts; assay type: cell-based, rat; settings: for toxicity with a two hour exposure: additional experiments; for toxicity of four hour versus six hour exposure: total incubation 96 hours
Procedure: as §3

[4] = system: ACHN, SW620, A549, MDA-N; test: Thymidine incorporation toxicity assay in four cancer derived cell lines; assay type: cell-based, human; settings: for correlation between MDR1 activity and toxicity/sensitivity: A549, SW620, ACHN (MDR1 10, 31, 120); for cell line against which most effective: four tumor derived cell lines
Procedure: as §1, §2, §3
A common mechanism of tumor resistance to chemotherapeutic agents is overexpression of the drug efflux protein MDR1 (Kane, et al., Advances in Drug Research 28: 182–252 (1996), Nooter, et al., Leukemia Research 18: 233–43 (1994)). MDR1 is overexpressed in many tumor derived cell lines (for instance see http://dtp.nci.nih.gov/), and its overexpression inversely correlates with sensitivity to certain compounds (Kane, et al., Advances in Drug Research 28: 182–252 (1996)).

[5] = system: DSB repair defective rad50 and rad52 strains of Saccharomyces cerevisiae; assay type: cell-based; settings: relative growth (OD660) vs solvent control
Description: The strains are derived from the A364a genetic background, with the exception of BY4705, which is derived from the S288C background. Gene disruptions were generated by PCR fragment directed replacement (Baudin, et al., Nucleic Acids Research 21: 3329–30 (1993), Guldener, et al., Nucleic Acids Research 24: 2519–24 (1996)). Yeast overexpressing topoisomerase II was constructed by a PCR fragment directed promoter replacement of the topoisomerase II promoter with the yeast GPD promoter flanked upstream by the URA3 marker. All strains (except BY4705) bear the pleitropic drug sensitizing mutations erg6, pdr1, and pdr3 (Balzi, et al., Journal of Bioenergetics & Biomembranes 27: 71–6 (1995), Delaveau, et al, Molecular & General Genetics 244: 501–11 (1994), Gaber, et al., Molecular & Cellular Biology 9: 3447–56 (1989), Saunders, et al., Canadian Journal of Genetics & Cytology, 24: 493–503 (1982). Subik, et al, Current Genetics 10: 665–70 (1986)). The haploid yeast strain BY4705 (Brachmann, et al., Yeast 14: 115–32 (1998)) was used in the experiments described in FIG. 5. Plasmids expressing yeast or human topoisomerase I genes under the GAL promoter (Knab, et al., Journal of Biological Chemistry 268: 22322–30 (1993). Knab, et al., Journal of Biological Chemistry 270: 6141–8 (1995)) were transformed into BY4705 using standard procedures.
Yeast toxicity assays were performed essentially as follows: Exponentially growing cultures of the appropriate strains were diluted in synthetic complete media to a concentration of 7.4×10^4 cells/mL, and aliquots (135 μL) were transferred to each well of clear flat-bottomed 96 well plates. Compounds were added in duplicate or triplicate as 15 μL of the appropriate dilution in 5% DMSO. A 15 μL portion of 5% DMSO was added to control wells. […] Cell growth (OD660) in treated wells was plotted as a percentage of the growth in at least four averaged solvent control wells for the same strain. Camptothecin sodium salt (camptothecin Na) was the agent used in all yeast assays as standard.

[6] = system: Rat1a fibroblasts; test: Effect of co-treatment with hydroxyurea (HU) on toxicity in Rat1a fibroblasts; assay type: cell-based, rat; settings: six-hour exposure; 0, 0.25, 0.5 or 1 mM HU
Procedure: FIG. 6 illustrates the effect of exposure time and hydroxyurea on the toxicity of compound Ia and compound IIa. […] Rat1a fibroblasts were exposed to compound during growth for either four or six hours, the media was changed, then cells were grown for an appropriate period such that total incubation time was 96 hours, and processed as described in the Example below. […] The bar graph insets for each graph show growth inhibition by HU alone.
as §3
A six-hour exposure was used to test whether the toxicity of the same set of compounds is dependent on ongoing DNA synthesis. […] Thus, in contrast to camptothecin and topotecan, compounds Ia and IIa show no marked time dependency for toxicity (FIG. 6A) and are not inhibited by HU (FIG. 6B), indicating critical mechanistic differences between these compounds and camptothecin.

Compound	effect of loss of homologous recombination (RAD52 or RAD54) on toxicity [1]	toxicity with a two hour exposure [3]	correlation between MDR1 activity and toxicity/sensitivity [4]	cell line against which most effective [4]	toxicity of four hour versus six hour exposure [3]	also measured
CC[C@@]1(O)C(=O)OCc2c1cc1n(c2=O)Cc2cc3ccccc3nc2-1 [camptothecin, Camptothecin, reference compound]	minor effect	no toxicity	No correlation	most effective against the colon carcinoma derived cell line SW620		effect of loss of KU70 on toxicity ([1]; DT40 with or without KU70): unaffected by KU70 expression; camptothecin concentration required in the in vitro assay relative to cell-based assays [2]: 100 fold; strand-break induction [2]: does induce strand-break formation; effectiveness of 96 hour exposure relative to four hour exposure [3]: ≤ 100 fold
O=C1c2c(O)ccc(O)c2C(=O)c2c(NCCNCCO)ccc(NCCNCCO)c21 [mitoxantrone]						profile of selective toxicity: toxic to rad50 and rad52 strains, not toxic in rad14 or rad18 strains [5]: Agents with this profile include
CC[C@@]1(O)C(=O)OCc2c1cc1n(c2=O)Cc2cc3c(CN(C)C)c(O)ccc3nc2-1 [topotecan, Topotecan, reference compound]			No correlation	most effective against the colon carcinoma derived cell line SW620	six-hour exposure being much more effective than a four-hour exposure	inhibition of toxicity by co-treatment with HU [6]: suppresses the toxicity
CC(=O)O[C@H]1C(=O)[C@@]2(C)[C@H]([C@H](OC(=O)c3ccccc3)[C@]3(O)C[C@H](OC(=O)[C@H](O)[C@@H](NC(=O)c4ccccc4)c4ccccc4)C(C)=C1C3(C)C)[C@]1(OC(C)=O)CO[C@@H]1C[C@@H]2O [taxol, reference compound]			clear inverse correlation			
COc1cc([C@@H]2c3cc4c(cc3[C@@H](O[C@@H]3O[C@@H]5CO[C@@H](C)O[C@H]5[C@H](O)[C@H]3O)[C@H]3COC(=O)[C@H]23)OCO4)cc(OC)c1O [etoposide, reference compound]	no effect	nearly full toxicity			little difference in toxicity	
